According to US8361968B2 (Takeda Pharmaceutical Company Limited, priority 2002, dated 2013):
Numbered stars: 1 amine (or outer) side, 2 acyl side, 3 side chain; on linkers, the order of the positions; unused ones are H or OH. Square brackets hold non-standard residues; d marks the D form. Ends that are not written are not given here. Peptide text beside a SMILES is read from it. * marks the point of attachment. X10 = NC(=O)C[C@@H](C(=O)[*:2])N(C[C@@H](N)Cc1ccc(O)cc1)[*:1]; X11 = O=C(CNC(=S)[C@H](Cc1ccccc1)N[*:1])[*:2]; Phe(4-NH2) = Nc1ccc(C[C@H](N)C(=O)O)cc1; 2Nal = N[C@@H](Cc1ccc2ccccc2c1)C(=O)O; Arg(Me) = CNC(=N)NCCC[C@H](N)C(=O)O; Tryptamide = c1ccc2c(CCN*)c[nH]c2c1; d3Pal = N[C@H](Cc1cccnc1)C(=O)O; d4Pal = N[C@H](Cc1ccncc1)C(=O)O; Cha = N[C@@H](CC1CCCCC1)C(=O)O; CO = O=C([*:1])[*:2]; azaGly = NNC(=O)O

Target: hOT7T175 (Homo sapiens, UniProt Q969F8, L364H)
Sequence (Q969F8 whole entry L364H): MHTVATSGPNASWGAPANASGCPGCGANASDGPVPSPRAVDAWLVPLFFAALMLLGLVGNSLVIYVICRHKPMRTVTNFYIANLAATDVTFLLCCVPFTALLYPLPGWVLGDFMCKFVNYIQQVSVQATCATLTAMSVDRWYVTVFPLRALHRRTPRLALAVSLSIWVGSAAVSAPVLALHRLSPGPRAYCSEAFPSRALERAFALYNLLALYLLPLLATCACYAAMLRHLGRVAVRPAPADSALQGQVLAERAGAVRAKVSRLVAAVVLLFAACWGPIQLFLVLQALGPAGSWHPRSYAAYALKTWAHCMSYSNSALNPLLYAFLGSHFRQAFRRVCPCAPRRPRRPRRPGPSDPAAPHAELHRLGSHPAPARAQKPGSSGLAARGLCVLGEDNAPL
Test: Intracellular Ca ion level-increasing activity using FLIPR in hOT7T175/CHO
Assay type: cell-based
Parameters: expressed in transfected cells; host or cells: CHO/dhfr- cells, obtained from ATCC
Conditions: relative, Metastin (1-54) = 1

| Compound | Specific Activity (intracellular Ca ion level-increasing activity) |
| --- | --- |
| CNC(=N)NCCC[C@H](NC(=O)[C@H](CC(C)C)NC(=O)CNC(=O)[C@H](Cc1ccccc1)NC(=O)[C@H](CO)NC(=O)[C@H](CC(N)=O)NC(=O)[C@H](Cc1c[nH]c2ccccc12)NC(=O)[C@H](CCC(N)=O)NC(=O)[C@H](N)Cc1ccc(O)cc1)C(=O)N[C@@H](Cc1ccccc1)C(N)=O [Compound No. 214] (H-[dY]QWNSFGL[Arg(Me)]F-NH2) | 10 |
| CNC(=N)NCCC[C@H](NC(=O)[C@H](CC(C)C)NC(=O)NNC(=O)[C@H](Cc1ccccc1)NC(=O)[C@H](CO)NC(=O)[C@H](CC(N)=O)NC(=O)[C@H](Cc1ccccc1)NC(=O)[C@H](CC(N)=O)NC(=O)[C@H](N)Cc1ccc(O)cc1)C(=O)N[C@@H](Cc1ccccc1)C(N)=O [Compound No. 244, D-Tyr-Asn-Phe-Asn-Ser-Phe-AzaGly-Leu-Arg(Me)-Phe-NH2] (H-[dY]NFNSF[azaGly]L[Arg(Me)]F-NH2; N-terminus assumed) | 1 |
| Tyr-Asn-Trp-Phe-Gly-Leu-Arg-Phe-NH2 (YNWFGLRF-NH2) [Compound No. 88] | 1 |
| CNC(=N)NCCC[C@H](NC(=O)[C@H](CC(C)C)NC(=O)CNC(=O)[C@H](Cc1ccccc1)NC(=O)[C@@H](NC(=O)[C@H](CC(N)=O)NC(=O)[C@H](Cc1c[nH]c2ccccc12)NC(=O)[C@H](CC(N)=O)NC(=O)[C@H](N)Cc1ccc(O)cc1)[C@@H](C)O)C(=O)N[C@@H](Cc1ccccc1)C(N)=O [Compound No. 211] (H-[dY]NWNTFGL[Arg(Me)]F-NH2; N-terminus assumed) | 10 |
| CC(C)C[C@H](NC(=O)NNC(=O)[C@H](Cc1ccccc1)NC(=O)[C@H](CO)NC(=O)[C@H](CC(N)=O)NC(=O)[C@H](Cc1c[nH]c2ccccc12)NC(=O)[C@H](CC(N)=O)NC(=O)[C@@H](N)Cc1ccc(O)cc1)C(=O)N[C@@H](CCCNC(=N)N)C(=O)N[C@@H](Cc1ccccc1)C(N)=O [Compound No. 176, Tyr-Asn-Trp-Asn-Ser-Phe-AzaGly-Leu-Arg-Phe-NH2] | 5 |
| CC(C)C[C@H](NC(=O)CNC(=O)[C@H](Cc1ccc2ccccc2c1)NC(=O)[C@H](CO)NC(=O)[C@H](CC(N)=O)NC(=O)[C@H](Cc1c[nH]c2ccccc12)NC(=O)[C@H](CC(N)=O)NC(=O)[C@@H](N)Cc1ccc(O)cc1)C(=O)N[C@@H](CCCNC(=N)N)C(=O)N[C@@H](Cc1ccccc1)C(N)=O [Compound No. 152, Tyr-Asn-Trp-Asn-Ser-Nal(2)-Gly-Leu-Arg-Phe-NH2] (H-YNWNS[2Nal]GLRF-NH2) | 5 |
| CNC(=N)NCCC[C@H](NC(=O)[C@H](CC(C)C)NC(=O)NNC(=O)[C@H](Cc1ccccc1)NC(=O)[C@H](CO)NC(=O)[C@H](CC(N)=O)NC(=O)NCCc1c[nH]c2ccccc12)C(=O)N[C@@H](Cc1ccccc1)C(N)=O [Compound No. 279, 2-(indol-3-yl)ethylcarbamoyl-Asn-Ser-Phe-AzaGly-Leu-Arg(Me)-Phe-NH2] ({Tryptamide-CO}-NSF[azaGly]L[Arg(Me)]F-NH2) | 5 |
| CNC(=N)NCCC[C@H](NC(=O)[C@H](CC(C)C)NC(=O)NNC(=O)[C@H](Cc1ccccc1)NC(=O)[C@H](CO)NC(=O)[C@H](CC(N)=O)NC(=O)[C@H](Cc1ccc(N)cc1)NC(=O)[C@H](CC(N)=O)NC(=O)[C@H](N)Cc1ccc(O)cc1)C(=O)N[C@@H](Cc1ccccc1)C(N)=O [Compound No. 250, D-Tyr-Asn-Phe(4NH2)-Asn-Ser-Phe-AzaGly-Leu-Arg(Me)-Phe-NH2] (H-[dY]N[Phe(4-NH2)]NSF[azaGly]L[Arg(Me)]F-NH2) | 1 |
| CC(C)C[C@H](NC(=O)CNC(=S)[C@H](Cc1ccccc1)NC(=O)[C@H](CO)NC(=O)[C@H](CC(N)=O)NC(=O)[C@H](Cc1c[nH]c2ccccc12)NC(=O)[C@H](CC(N)=O)NC(=O)[C@@H](N)Cc1ccc(O)cc1)C(=O)N[C@@H](CCCNC(=N)N)C(=O)N[C@@H](Cc1ccccc1)C(N)=O [Compound No. 166, Tyr-Asn-Trp-Asn-Ser-Phe Ψ(CSNH)Gly-Leu-Arg-Phe-NH2] (H-YNWNS[X11]LRF-NH2) | 5 |
| CNC(=N)NCCC[C@H](NC(=O)[C@H](CC(C)C)NC(=O)CNC(=O)[C@H](Cc1ccccc1)NC(=O)[C@H](CO)NC(=O)[C@H](CC(N)=O)NC(=O)[C@H](Cc1c[nH]c2ccccc12)NC(=O)[C@H](N)CC(N)=O)C(=O)N[C@@H](Cc1ccccc1)C(N)=O [Compound No. 216] (H-[dN]WNSFGL[Arg(Me)]F-NH2; N-terminus assumed) | 1 |
| CC(C)C[C@H](NC(=O)CNC(=O)[C@H](Cc1ccccc1)NC(=O)[C@H](CO)NC(=O)[C@H](CC(N)=O)NC(=O)[C@H](Cc1c[nH]c2ccccc12)NC(=O)[C@@H](CC(N)=O)NC(=O)[C@@H](N)Cc1ccc(O)cc1)C(=O)N[C@@H](CCCNC(=N)N)C(=O)N[C@@H](Cc1ccccc1)C(N)=O [Compound No. 41] | 10 |
| CNC(=N)NCCC[C@H](NC(=O)[C@H](CC(C)C)NC(=O)CNC(=O)[C@H](Cc1ccccc1)NC(=O)[C@H](CO)NC(=O)[C@H](CC(N)=O)NC(=O)[C@H](C)NC(=O)[C@H](CC(N)=O)NC(=O)[C@H](N)Cc1ccc(O)cc1)C(=O)N[C@@H](Cc1ccccc1)C(N)=O [Compound No. 169] (H-[dY]NANSFGL[Arg(Me)]F-NH2) | 2 |
| CC(C)C[C@H](NC(=O)CNC[C@H](Cc1ccccc1)NC(=O)[C@H](CO)NC(=O)[C@H](CC(N)=O)NC(=O)[C@H](Cc1c[nH]c2ccccc12)NC(=O)[C@H](CC(N)=O)NC(=O)[C@@H](N)Cc1ccc(O)cc1)C(=O)N[C@@H](CCCNC(=N)N)C(=O)N[C@@H](Cc1ccccc1)C(N)=O [Compound No. 163, Tyr-Asn-Trp-Asn-Ser-PheΨ(CH2NH)Gly-Leu-Arg-Phe-NH2] | 1 |
| CNC(=N)NCCC[C@H](NC(=O)[C@H](CC(C)C)NC(=O)CNC(=O)[C@H](Cc1ccccc1)NC(=O)[C@H](CO)NC(=O)[C@H](CC(N)=O)NC(=O)[C@@H](Cc1c[nH]c2ccccc12)NC(=O)[C@@H](CC(N)=O)NC(=O)[C@H](N)Cc1ccc(O)cc1)C(=O)N[C@@H](Cc1ccccc1)C(N)=O [Compound No. 231, D-Tyr-D-Asn-D-Trp-Asn-Ser-Phe-Gly-Leu-Arg(Me)-Phe-NH2] | 1 |

Next, values leading:

| Specific Activity (intracellular Ca ion level-increasing activity) | Compound |
| --- | --- |
| 1 | CNC(=N)NCCC[C@H](NC(=O)[C@H](CC(C)C)NC(=O)NNC(=O)[C@H](Cc1ccccc1)NC(=O)[C@@H](NC(=O)[C@H](CC(N)=O)NC(=O)[C@H](Cc1c[nH]c2ccccc12)NC(=O)[C@H](CC(N)=O)NC(=O)[C@H](N)Cc1ccc(O)cc1)[C@@H](C)O)C(=O)N[C@@H](Cc1ccccc1)C(N)=O [Compound No. 297, D-Tyr-Asn-Trp-Asn-Thr-Phe-AzaGly-Leu-Arg(Me)-Phe-NH2] (H-[dY]NWNTF[azaGly]L[Arg(Me)]F-NH2; N-terminus assumed) |
| 1 | CNC(=N)NCCC[C@H](NC(=O)[C@H](CC(C)C)NC(=O)NNC(=O)[C@H](Cc1ccccc1)NC(=O)[C@H](CO)NC(=O)[C@H](CC(N)=O)NC(=O)[C@H](CC1CCCCC1)NC(=O)[C@@H](CC(N)=O)NC(=O)[C@H](N)Cc1cccnc1)C(=O)N[C@@H](Cc1ccccc1)C(N)=O [Compound No. 290, D-Pya(3)-D-Asn-Cha-Asn-Ser-Phe-AzaGly-Leu-Arg(Me)-Phe-NH2] (H-[d3Pal][dN][Cha]NSF[azaGly]L[Arg(Me)]F-NH2) |
| 1 | CNC(=N)NCCC[C@H](NC(=O)[C@H](CC(C)C)NC(=O)NNC(=O)[C@H](Cc1ccccc1)NC(=O)[C@H](CO)NC(=O)[C@H](CC(N)=O)NC(=O)[C@@H](NC(=O)[C@@H](CC(N)=O)NC(=O)[C@H](N)Cc1ccc(O)cc1)[C@@H](C)O)C(=O)N[C@@H](Cc1ccccc1)C(N)=O [Compound No. 284, D-Tyr-D-Asn-Thr-Asn-Ser-Phe-AzaGly-Leu-Arg(Me)-Phe-NH2] (H-[dY][dN]TNSF[azaGly]L[Arg(Me)]F-NH2) |
| 1 | CNC(=N)NCCC[C@H](NC(=O)[C@H](CC(C)C)NC(=O)NNC(=O)[C@H](Cc1ccccc1)NC(=O)[C@H](CO)NC(=O)[C@H](CC(N)=O)NC(=O)[C@H](Cc1c[nH]c2ccccc12)NC(=O)[C@H](N)Cc1cccnc1)C(=O)N[C@@H](Cc1ccccc1)C(N)=O [Compound No. 289, D-Pya(3)-Trp-Asn-Ser-Phe-AzaGly-Leu-Arg(Me)-Phe-NH2] (H-[d3Pal]WNSF[azaGly]L[Arg(Me)]F-NH2) |
| 5 | CNC(=N)NCCC[C@H](NC(=O)[C@H](CC(C)C)NC(=O)NNC(=O)[C@H](Cc1ccccc1)NC(=O)[C@H](CO)NC(=O)[C@H](CC(N)=O)NC(=O)[C@H](Cc1c[nH]c2ccccc12)NC(=O)[C@H](CC(N)=O)NC[C@@H](N)Cc1ccc(O)cc1)C(=O)N[C@@H](Cc1ccccc1)C(N)=O [Compound No. 299, TyrΨ(CH2NH)Asn-Trp-Asn-Ser-Phe-AzaGly-Leu-Arg(Me)-Phe-NH2] (H-[X10]WNSF[azaGly]L[Arg(Me)]F-NH2) |
| 2 | CNC(=N)NCCC[C@H](NC(=O)[C@H](CC(C)C)NC(=O)NNC(=O)[C@H](Cc1ccccc1)NC(=O)[C@H](CO)NC(=O)[C@H](CC(N)=O)NC(=O)[C@H](CC1CCCCC1)NC(=O)[C@@H](CC(N)=O)NC(=O)[C@H](N)Cc1ccncc1)C(=O)N[C@@H](Cc1ccccc1)C(N)=O [Compound No. 306, D-Pya(4)-D-Asn-Cha-Asn-Ser-Phe-AzaGly-Leu-Arg(Me)-Phe-NH2] (H-[d4Pal][dN][Cha]NSF[azaGly]L[Arg(Me)]F-NH2) |
| 5 | Methylthiocarbamoyl-Sar-D-Tyr-Asn-Trp-Asn-Ser-Phe-Gly-Leu-Arg(Me)-Phe-NH2 [Compound No. 397] |
